# Experimental data published in patent US20250313604A1, “PEPTIDE PHARMACEUTICALS FOR INSULIN RESISTANCE” (Mederis Diabetes LLC, priority 2014, published 2025).
# Key:
# db/db mice = test: In vivo assay in db/db mice (blood glucose, body weight, food consumption)
# [1] = in water; cited from earlier work
# [2] = high dose (300 nmoles/kg) s.c., Days 2 and 3
compound,measurement,setting,value
"CCCCCCCCCCCCCCCCCCO[C@@H]1O[C@H](CO[C@H]2O[C@H](C(=O)NCCCC[C@H](NC(=O)[C@@H](NC(=O)[C@H](Cc3ccccc3)NC(=O)[C@H](CCC(=O)O)NC(=O)[C@@H]3CCCCNC(=O)CC[C@H](NC(=O)[C@H](CC(=O)O)NC(=O)[C@H](CC(C)C)NC(=O)[C@H](Cc4ccc(O)cc4)NC(=O)[C@H](CCCCN)NC(=O)[C@H](CO)NC(=O)[C@H](Cc4ccc(O)cc4)NC(=O)[C@H](CC(=O)O)NC(=O)[C@H](CO)NC(=O)[C@@H](NC(=O)[C@H](Cc4ccccc4)NC(=O)[C@@H](NC(=O)CNC(=O)[C@H](CCC(N)=O)NC(=O)C(C)(C)NC(=O)[C@@H](N)Cc4c[nH]cn4)[C@@H](C)O)[C@@H](C)O)C(=O)N[C@@H](CCC(N)=O)C(=O)N[C@@H](C)C(=O)N[C@@H](C)C(=O)N3)[C@@H](C)CC)C(=O)N[C@@H](Cc3c[nH]c4ccccc34)C(=O)N[C@@H](CC(C)C)C(=O)N[C@@H](CC(C)C)C(=O)N[C@@H](CCC(N)=O)C(=O)N[C@H](C(N)=O)[C@@H](C)O)[C@H](O)[C@H](O)[C@H]2O)[C@@H](O)[C@H](O)[C@H]1O [EU-A1026, His1-Aib2-Gln3-Gly4-Thr5-Phe6-Thr7-Ser8-Asp9-Tyr10-Ser11-Lys12-Tyr13-Leu14-Asp15-Glu*16-Gln17 Ala18-Ala19-Lys*20-Glu21-Phe22-Ile23-Lys (N-omega (1-octadecyl beta-D-melibiouronyl)) 24-Trp25-Leu26-Leu27-Gln28-Thr29-NH2]",db/db mice - Mean Blood Glucose,"db/db mice; 300 nmole/kg s.c., 0 hr",531 mg/dL
same,db/db mice - Mean Blood Glucose,"db/db mice; 300 nmole/kg s.c., 10 hr",399 mg/dL
same,db/db mice - Mean Blood Glucose,"db/db mice; 300 nmole/kg s.c., 24 hr",438 mg/dL
same,db/db mice - Mean Blood Glucose,"db/db mice; 300 nmole/kg s.c., 48 hr",505 mg/dL
same,body weight changes against vehicle,db/db mice; [2],Significant body weight changes
same,glucose levels versus liraglutide,"db/db mice; low dose (100 nmoles/kg) s.c., 10 hours",significantly different from liraglutide
same,body weight changes against vehicle,"db/db mice; low dose (100 nmoles/kg) s.c., Days 3 and 4",Significant body weight changes
CCCCCCCCO[C@@H]1O[C@H](C(=O)NCCCC[C@H](NC(=O)[C@@H](NC(=O)[C@H](Cc2ccccc2)NC(=O)[C@H](CCC(=O)O)NC(=O)[C@@H]2CCCCNC(=O)CC[C@H](NC(=O)[C@H](CC(=O)O)NC(=O)[C@H](CC(C)C)NC(=O)[C@H](Cc3ccc(O)cc3)NC(=O)[C@H](CCCCN)NC(=O)[C@H](CO)NC(=O)[C@H](Cc3ccc(O)cc3)NC(=O)[C@H](CC(=O)O)NC(=O)[C@H](CO)NC(=O)[C@@H](NC(=O)[C@H](Cc3ccccc3)NC(=O)[C@@H](NC(=O)CNC(=O)[C@H](CCC(N)=O)NC(=O)C(C)(C)NC(=O)[C@@H](N)Cc3c[nH]cn3)[C@@H](C)O)[C@@H](C)O)C(=O)N[C@@H](CCC(N)=O)C(=O)N[C@@H](C)C(=O)N[C@@H](C)C(=O)N2)[C@@H](C)CC)C(=O)N[C@@H](Cc2c[nH]c3ccccc23)C(=O)N[C@@H](CC(C)C)C(=O)N[C@@H](CC(C)C)C(=O)N[C@@H](CCC(N)=O)C(=O)N[C@H](C(N)=O)[C@@H](C)O)[C@@H](O)[C@H](O)[C@H]1O [EU-A992],db/db mice - Mean Blood Glucose,"db/db mice; 250 nmole/kg s.c., 0 hr",405 mg/dL
same,db/db mice - Mean Blood Glucose,"db/db mice; 250 nmole/kg s.c., 10 hr",104 mg/dL
same,db/db mice - Mean Blood Glucose,"db/db mice; 250 nmole/kg s.c., 24 hr",112 mg/dL
same,db/db mice - Mean Blood Glucose,"db/db mice; 250 nmole/kg s.c., 48 hr",130 mg/dL
CCCCCCCCCCO[C@@H]1O[C@H](C(=O)NCCCC[C@H](NC(=O)[C@@H](NC(=O)[C@H](Cc2ccccc2)NC(=O)[C@H](CCC(=O)O)NC(=O)[C@@H]2CCCCNC(=O)CC[C@H](NC(=O)[C@H](CC(=O)O)NC(=O)[C@H](CC(C)C)NC(=O)[C@H](Cc3ccc(O)cc3)NC(=O)[C@H](CCCCN)NC(=O)[C@H](CO)NC(=O)[C@H](Cc3ccc(O)cc3)NC(=O)[C@H](CC(=O)O)NC(=O)[C@H](CO)NC(=O)[C@@H](NC(=O)[C@H](Cc3ccccc3)NC(=O)[C@@H](NC(=O)CNC(=O)[C@H](CCC(N)=O)NC(=O)C(C)(C)NC(=O)[C@@H](N)Cc3c[nH]cn3)[C@@H](C)O)[C@@H](C)O)C(=O)N[C@@H](CCC(N)=O)C(=O)N[C@@H](C)C(=O)N[C@@H](C)C(=O)N2)[C@@H](C)CC)C(=O)N[C@@H](Cc2c[nH]c3ccccc23)C(=O)N[C@@H](CC(C)C)C(=O)N[C@@H](CC(C)C)C(=O)N[C@@H](CCC(N)=O)C(=O)N[C@H](C(N)=O)[C@@H](C)O)[C@@H](O)[C@H](O)[C@H]1O [EU-A1167],db/db mice - Mean Blood Glucose,"db/db mice; 250 nmole/kg s.c., 0 hr",379 mg/dL
same,db/db mice - Mean Blood Glucose,"db/db mice; 250 nmole/kg s.c., 10 hr",171 mg/dL
same,db/db mice - Mean Blood Glucose,"db/db mice; 250 nmole/kg s.c., 24 hr",117 mg/dL
same,db/db mice - Mean Blood Glucose,"db/db mice; 250 nmole/kg s.c., 48 hr",113 mg/dL
CCCCCCCCCCO[C@@H]1O[C@H](CO)[C@@H](O[C@H]2O[C@H](CO)[C@@H](O)[C@H](O)[C@H]2O)[C@H](O)[C@H]1O [Decyl maltoside],CMC,[1],1.8 mM
CCCCCCCCCCCO[C@@H]1O[C@H](C(=O)NCCCC[C@H](NC(=O)[C@@H](NC(=O)[C@H](Cc2ccccc2)NC(=O)[C@H](CCC(=O)O)NC(=O)[C@@H]2CCCCNC(=O)CC[C@H](NC(=O)[C@H](CC(=O)O)NC(=O)[C@H](CC(C)C)NC(=O)[C@H](Cc3ccc(O)cc3)NC(=O)[C@H](CCCCN)NC(=O)[C@H](CO)NC(=O)[C@H](Cc3ccc(O)cc3)NC(=O)[C@H](CC(=O)O)NC(=O)[C@H](CO)NC(=O)[C@@H](NC(=O)[C@H](Cc3ccccc3)NC(=O)[C@@H](NC(=O)CNC(=O)[C@H](CCC(N)=O)NC(=O)C(C)(C)NC(=O)[C@@H](N)Cc3c[nH]cn3)[C@@H](C)O)[C@@H](C)O)C(=O)N[C@@H](CCC(N)=O)C(=O)N[C@@H](C)C(=O)N[C@@H](C)C(=O)N2)[C@@H](C)CC)C(=O)N[C@@H](Cc2c[nH]c3ccccc23)C(=O)N[C@@H](CC(C)C)C(=O)N[C@@H](CC(C)C)C(=O)N[C@@H](CCC(N)=O)C(=O)N[C@H](C(N)=O)[C@@H](C)O)[C@@H](O)[C@H](O)[C@H]1O [EU-A1168],db/db mice - Mean Blood Glucose,"db/db mice; 250 nmole/kg s.c., 0 hr",380 mg/dL
same,db/db mice - Mean Blood Glucose,"db/db mice; 250 nmole/kg s.c., 10 hr",133 mg/dL
same,db/db mice - Mean Blood Glucose,"db/db mice; 250 nmole/kg s.c., 24 hr",169 mg/dL
same,db/db mice - Mean Blood Glucose,"db/db mice; 250 nmole/kg s.c., 48 hr",164 mg/dL
CCCCCCCCCCCCO[C@@H]1O[C@H](CO)[C@@H](O[C@H]2O[C@H](CO)[C@@H](O)[C@H](O)[C@H]2O)[C@H](O)[C@H]1O [Dodecyl-β-D-maltoside],CMC,[1],0.17 mM
Sucrose dodecanoate,CMC,[1],0.3 mM
CCCCCCCCCCCCCO[C@@H]1O[C@H](CO)[C@@H](OC2OC(CO)C(O)C(O)C2O)[C@H](O)[C@H]1O (stereo in doubt) [Tridecyl maltoside],CMC,[1],0.03 mM
CCCCCCCCO[C@@H]1O[C@H](CO)[C@@H](O[C@H]2O[C@H](CO)[C@@H](O)[C@H](O)[C@H]2O)[C@H](O)[C@H]1O [Octyl maltoside],CMC,[1],19.5 mM
CCCCCCCCCCCCCCO[C@@H]1O[C@H](CO)[C@@H](O[C@@H]2O[C@@H](CO)[C@H](O)[C@@H](O)[C@@H]2O)[C@H](O)[C@H]1O (stereo in doubt) [Tetradecyl maltoside],CMC,[1],0.01 mM
"CCCCCCCCCCCCCCO[C@@H]1O[C@H](C(=O)NCCCC[C@H](NC(=O)[C@@H](NC(=O)[C@H](Cc2ccccc2)NC(=O)[C@H](CCC(=O)O)NC(=O)[C@@H]2CCCCNC(=O)CC[C@H](NC(=O)[C@H](CC(=O)O)NC(=O)[C@H](CC(C)C)NC(=O)[C@H](Cc3ccc(O)cc3)NC(=O)[C@H](CCCCN)NC(=O)[C@H](CO)NC(=O)[C@H](Cc3ccc(O)cc3)NC(=O)[C@H](CC(=O)O)NC(=O)[C@H](CO)NC(=O)[C@@H](NC(=O)[C@H](Cc3ccccc3)NC(=O)[C@@H](NC(=O)CNC(=O)[C@H](CCC(N)=O)NC(=O)C(C)(C)NC(=O)[C@@H](N)Cc3c[nH]cn3)[C@@H](C)O)[C@@H](C)O)C(=O)N[C@@H](CCC(N)=O)C(=O)N[C@@H](C)C(=O)N[C@@H](C)C(=O)N2)[C@@H](C)CC)C(=O)N[C@@H](Cc2c[nH]c3ccccc23)C(=O)N[C@@H](CC(C)C)C(=O)N[C@@H](CC(C)C)C(=O)N[C@@H](CCC(N)=O)C(=O)N[C@H](C(N)=O)[C@@H](C)O)[C@@H](O)[C@H](O)[C@H]1O [EU-A994, His1-Aib2-Gln3-Gly4-Thr5-Phe6-Thr7-Ser8-Asp9-Tyr10-Ser11-Lys12-Tyr13-Leu14-Asp15-Glu*16-Gln17-Ala18-Ala19-Lys*20-Glu21-Phe22-Ile23-Lys(N-omega(1-tetradecylbeta-D-glucuronyl))24-Trp25-Leu26-Leu27-Gln28-Thr29-NH2]",db/db mice - Mean Blood Glucose,"db/db mice; 300 nmole/kg s.c., 0 hr",554 mg/dL
same,db/db mice - Mean Blood Glucose,"db/db mice; 300 nmole/kg s.c., 10 hr",242 mg/dL
same,db/db mice - Mean Blood Glucose,"db/db mice; 300 nmole/kg s.c., 24 hr",209 mg/dL
same,db/db mice - Mean Blood Glucose,"db/db mice; 300 nmole/kg s.c., 48 hr",385 mg/dL
same,body weight changes against vehicle,db/db mice; [2],Significant body weight changes
